System: 958667-338-R-J2-PDC tumor spheroids viability
Assay: Anticancer human tumor 958667-338-R-J2-PDC patient-derived colon adenocarcinoma cell line growth inhibition [PI3K]
Settings: spheroids with HUVEC and MSC; for IC50: curve of first compound; for viability, T/C: stronger effect = lower value
Procedure, shortened: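 Viability of mixed-cell spheroids was determined after exposure to pairwise combinations, one partner being inavolisib, alpelisib, duvelisib or copanlisib. Highest tested concentration matched clinical Cmax where known and 10 microM where not, descending in half-log steps.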
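Further: spheroids exposed to compounds for seven days before readout.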

`CC(C)NCC(C(=O)N1CCN(c2ncnc3c2C(C)CC3O)CC1)c1ccc(Cl)cc1` (configuration not stated) + CC(Nc1ncnc2nc[nH]c12)c1cc2cccc(Cl)c2c(=O)n1-c1ccccc1 was tested, and the IC50 (second compound 0.0316 µM) was > 10 µM, the IC50 (second compound 0.1 µM) was > 10 µM and the IC50 (second compound 0.316 µM) was > 10 µM. For the same compound, the IC50 (second compound 1 µM) was > 10 µM, the IC50 (second compound 3.16 µM) was > 10 µM and the IC50 (second compound 10 µM) was > 10 µM. The viability, T/C (second compound 0.0316 µM, first compound 0.0316 µM) was 81.9%, the viability, T/C (second compound 0.0316 µM, first compound 0.1 µM) was 97.3% and the viability, T/C (second compound 0.0316 µM, first compound 0.316 µM) was 72.1%. The viability, T/C (second compound 0.0316 µM, first compound 1 µM) was 82%, the viability, T/C (second compound 0.0316 µM, first compound 3.16 µM) was 89.7% and the viability, T/C (second compound 0.0316 µM, first compound 10 µM) was 64%. The viability, T/C (second compound 0.1 µM, first compound 0.0316 µM) was 102%, the viability, T/C (second compound 0.1 µM, first compound 0.1 µM) was 95.7% and the viability, T/C (second compound 0.1 µM, first compound 0.316 µM) was 86.5%. For the same compound, the viability, T/C (second compound 0.1 µM, first compound 1 µM) was 95.7%, the viability, T/C (second compound 0.1 µM, first compound 3.16 µM) was 92.4% and the viability, T/C (second compound 0.1 µM, first compound 10 µM) was 68.7%. It also gave a viability, T/C (second compound 0.316 µM, first compound 0.0316 µM) of 94.7%, a viability, T/C (second compound 0.316 µM, first compound 0.1 µM) of 104% and a viability, T/C (second compound 0.316 µM, first compound 0.316 µM) of 80%. For the same compound, the viability, T/C (second compound 0.316 µM, first compound 1 µM) was 94%, the viability, T/C (second compound 0.316 µM, first compound 3.16 µM) was 83.3% and the viability, T/C (second compound 0.316 µM, first compound 10 µM) was 70.5%. It also gave a viability, T/C (second compound 1 µM, first compound 0.0316 µM) of 85.9%, a viability, T/C (second compound 1 µM, first compound 0.1 µM) of 80.6% and a viability, T/C (second compound 1 µM, first compound 0.316 µM) of 93.4%. The viability, T/C (second compound 1 µM, first compound 1 µM) was 101%, the viability, T/C (second compound 1 µM, first compound 3.16 µM) was 77.8% and the viability, T/C (second compound 1 µM, first compound 10 µM) was 63.4%. The viability, T/C (second compound 3.16 µM, first compound 0.0316 µM) was 77.4%, the viability, T/C (second compound 3.16 µM, first compound 0.1 µM) was 87.5% and the viability, T/C (second compound 3.16 µM, first compound 0.316 µM) was 102%. It also gave a viability, T/C (second compound 3.16 µM, first compound 1 µM) of 84.2%, a viability, T/C (second compound 3.16 µM, first compound 3.16 µM) of 80.2% and a viability, T/C (second compound 3.16 µM, first compound 10 µM) of 64.7%. It also gave a viability, T/C (second compound 10 µM, first compound 0.0316 µM) of 91.2%, a viability, T/C (second compound 10 µM, first compound 0.1 µM) of 88.4% and a viability, T/C (second compound 10 µM, first compound 0.316 µM) of 79.3%. It also gave a viability, T/C (second compound 10 µM, first compound 1 µM) of 83.2%, a viability, T/C (second compound 10 µM, first compound 3.16 µM) of 81.7% and a viability, T/C (second compound 10 µM, first compound 10 µM) of 55.2%.

Reference: PubChem BioAssay AID1963963 (Molecular Pharmacology Branch, DTP, NCI, 2024)
